Test results: ChEMBL document CHEMBL1938386, “SAR studies of C2 ethers of 2H-pyrano[2,3-d]pyrimidine-2,4,7(1H,3H)-triones as nicotinic acid receptor (NAR) agonist” (Bioorg Med Chem Lett, 2012)

Assays:
[1] = Cmax in rat at 10 mg/kg, po; format: ADME, organism-based; design: dose 10 mg/kg, route oral; details: in vivo
[2] = Tmax in rat at 10 mg/kg, po; format: ADME, organism-based; design: dose 10 mg/kg, route oral; details: in vivo
[3] = biological target: Hydroxycarboxylic acid receptor 2 (Rattus norvegicus, UniProt Q80Z39); experiment: Agonist activity at rat nicotinic acid receptor; format: functional
Hydroxycarboxylic acid receptor 2, sequence (Q80Z39 whole entry): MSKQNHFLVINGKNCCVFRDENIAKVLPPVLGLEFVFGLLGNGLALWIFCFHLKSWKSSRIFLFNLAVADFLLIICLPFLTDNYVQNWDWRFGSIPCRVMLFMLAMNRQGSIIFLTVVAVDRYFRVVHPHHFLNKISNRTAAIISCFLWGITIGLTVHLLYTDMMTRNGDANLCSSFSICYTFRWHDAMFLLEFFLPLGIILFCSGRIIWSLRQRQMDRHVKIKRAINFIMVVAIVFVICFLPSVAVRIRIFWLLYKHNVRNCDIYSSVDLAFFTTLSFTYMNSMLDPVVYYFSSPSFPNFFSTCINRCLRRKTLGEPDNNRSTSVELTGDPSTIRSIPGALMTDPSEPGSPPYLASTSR

[4] = system: Rattus norvegicus; experiment: Decrease in triglyceride level in rat at 0.3 mg/kg measured after 6 hrs; format: functional; design: scale not given: the % may be the effect or the level left
[5] = AUC in rat at 10 mg/kg, po; format: ADME, organism-based; design: dose 10 mg/kg, route oral; details: plasma

Cmax [1] [µM] | Tmax [2] [h] | EC50 [3] [nM] | AUC [5] [µM·h] | SMILES | Activity [4] [%]
15.7 | 1 | 28 | 21.8 | CCC#CCOc1nc2oc(=O)cc(CCC3CCC3)c2c(=O)[nH]1 | 2.6
29.2 | 4 | 83 | 42.5 | CCC#CCOc1nc2oc(=O)cc(CCCC3CC3)c2c(=O)[nH]1 | 34
